Assay results as given in US11691972B2, “Compounds for targeted degradation of BRD9” (C4 Therapeutics, Inc., priority 2020, dated 2023).

Each molecule was assayed against T1, BRD9 (Homo sapiens, UniProt Q9H8M2) (assay: HiBiT BRD9 degradation assay in 293T.166 (BRD9-HiBiT) cells). Conditions: Table 1; 293T.166 cells, 2.0 hours; class symbols; read-out: HiBiT-Degradation 293T.166 BRD9 2.0 hours (DC50).
T1 sequence (Q9H8M2 1-597): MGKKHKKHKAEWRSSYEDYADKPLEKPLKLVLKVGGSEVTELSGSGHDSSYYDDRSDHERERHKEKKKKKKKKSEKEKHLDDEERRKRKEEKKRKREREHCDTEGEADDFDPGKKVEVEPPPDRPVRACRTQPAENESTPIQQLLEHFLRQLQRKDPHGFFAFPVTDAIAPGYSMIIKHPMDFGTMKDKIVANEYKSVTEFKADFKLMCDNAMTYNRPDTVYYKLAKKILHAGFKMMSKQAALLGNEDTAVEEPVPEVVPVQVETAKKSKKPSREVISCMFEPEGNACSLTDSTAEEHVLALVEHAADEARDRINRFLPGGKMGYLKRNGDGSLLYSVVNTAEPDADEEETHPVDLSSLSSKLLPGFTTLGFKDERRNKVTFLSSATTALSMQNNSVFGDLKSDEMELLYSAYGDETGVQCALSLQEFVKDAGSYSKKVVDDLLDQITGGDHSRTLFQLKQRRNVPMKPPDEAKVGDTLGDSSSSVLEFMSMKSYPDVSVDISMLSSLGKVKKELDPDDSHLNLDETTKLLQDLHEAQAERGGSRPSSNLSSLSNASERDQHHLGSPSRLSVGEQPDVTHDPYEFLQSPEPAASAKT
Type: cell-based
Parameters: endogenously expressing BRD9 with HiBiT fusion tag via CRISPR; host or cells: 293T.166 (BRD9-HiBiT), also expressing LgBiT ectopically
Method: Selected compounds were tested in a BRD9 degradation assay using the HiBit Method.
Dulbecco's modified Eagle medium (DMEM) without phenol red and fetal bovine serum (FBS) were purchased from Gibco (Grand Island, N.Y., USA). Nano-Glo® HiBiT Lytic Assay System was purchased from Promega (Madison, Wis., USA). 293T.166 (BRD9-HiBiT) cell line, endogenously expressing BRD9 with HiBiT fusion tag via CRISPR and ectopically expressing LgBiT tag, was purchased from Promega (Madison, Wis., USA). 293T.167 (BRD7-HiBiT) cell line, endogenously expressing BRD7 with HiBiT fusion tag via CRISPR and ectopically expressing LgBiT tag, was purchased from Promega (Madison, Wis., USA). 293T.92 (BRD4-HiBiT) cell line, endogenously expressing BRD4 with HiBiT fusion tag via CRISPR and ectopically expressing LgBiT tag, was generated in-house. Cell culture flasks and 384-well microplates were acquired from VWR (Radnor, Pa., USA).
BRD9 degradation was determined based on quantification of luminescent signal using Nano-Glo® HiBiT Lytic Assay kit. Test compounds were added to the 384-well plate from a top concentration of 10 μM with 11 points, half log titration in duplicates. 293T.166 cells were added into 384-well plates at a cell density of 10,000 cells per well. The plates were kept at 37° C. with 5% CO2 for 2 hours. BRD7 and BRD4 degradation was similarly determined with 293T.167 cells and 293T.92 cells, respectively. The cells treated in the absence of the test compound were the negative control and the cells without Nano-Glo® HiBiT Lytic reagent were the positive control. After 2-hour incubation, Nano-Glo® HiBiT Lytic Assay reagents were added to the cells. Luminescence was acquired on EnVision™ Multilabel Reader (PerkinElmer, Santa Clara, Calif., USA).

DC50, < 100 nM:
COc1cc(-c2cn(C)c(=O)c3cnccc23)cc(Cl)c1CN1CCC(C2CCN(c3ccc(NC4CCC(=O)NC4=O)cc3Cl)CC2)C(F)(F)C1 (stereo not shown) [Compound 200]
COc1cc(-c2cn(C)c(=O)c3[nH]ncc23)cc(OC)c1CN1CCN(C(=O)CC2CCN(c3ccc(NC4CCC(=O)NC4=O)cc3C(F)(F)F)CC2)CC1 (stereo not shown) [Compound 52, 3-[4-[4-[2-[4-[[2,6-dimethoxy-4-(6-methyl-7-oxo-1H-pyrazolo[3,4-c]pyridin-4-yl)phenyl]methyl]piperazin-1-yl]-2-oxo-ethyl]-1-piperidyl]-3-(trifluoromethyl)anilino]piperidine-2,6-dione]
COc1cc(-c2cn(C)c(=O)c3[nH]ncc23)cc(OC)c1CNC1CCN(CC(=O)N2CCC(c3ccc(NC4CCC(=O)NC4=O)cc3)CC2)CC1 (stereo not shown) [Compound 39]
COc1cc(-c2cn(C)c(=O)c(C)c2C)cc(OC)c1C(=O)N1CCc2c(CC3CCN(c4ccc(NC5CCC(=O)NC5=O)cc4C(F)(F)F)CC3)cccc2C1 (stereo not shown) [Compound 238]
Cc1c(-c2ccc(CN3CCC(C4CCN(c5ccc(NC6CCC(=O)NC6=O)cc5F)CC4)CC3)nc2)cn(C)c(=O)c1C (stereo not shown) [Compound 81]
COc1cc(-c2cn(C)c(=O)c3[nH]ncc23)cc(Cl)c1C(=O)N1CCC(CC(=O)N2CCC(c3ccc(NC4CCC(=O)NC4=O)cc3)CC2)CC1 (stereo not shown) [Compound 233]
COc1cc(-c2cn(C)c(=O)c3ccc(F)cc23)cc(OC)c1CN1CCN(C(=O)CN2CCC(c3ccc(NC4CCC(=O)NC4=O)cc3)CC2)CC1 (stereo not shown) [Compound 27]
Cn1cc(-c2ccc(C(=O)N3CCC(N4CCN(c5ccc(NC6CCC(=O)NC6=O)cc5F)CC4)C(F)(F)C3)c(OC(F)(F)F)c2)c2ccncc2c1=O (stereo not shown) [Compound 227]
COc1cc(-c2cn(C)c(=O)c3cc(Cl)ccc23)cc(OC)c1CN1CCN(C(=O)CN2CCC(c3ccc(NC4CCC(=O)NC4=O)cc3)CC2)CC1 (stereo not shown) [Compound 29]
COc1cc(-c2cn(C)c(=O)c3[nH]ncc23)cc(F)c1CN1CCC(O)(CC(=O)N2CCC(c3ccc(NC4CCC(=O)NC4=O)cc3F)CC2)CC1 (stereo not shown) [Compound 154]
COc1cc(-c2cn(C)c(=O)c3cnccc23)cc(Cl)c1CN1CCC(N2CCN(c3ccc(NC4CCC(=O)NC4=O)nc3)CC2)C(F)(F)C1 (stereo not shown) [Compound 194]
COc1cc(-c2cn(C)c(=O)c3cnccc23)cc(Cl)c1C(=O)N1CCC(N2CCN(c3ccc(NC4CCC(=O)NC4=O)cc3F)CC2)C(F)(F)C1 (stereo not shown) [Compound 224]
COc1cc(-c2cn(C)c(=O)c3[nH]ncc23)cc(OC)c1CN1CCN(C(=O)CN2CCC(c3ccc(NC4CCC(=O)NC4=O)c(Cl)c3)CC2)CC1 (stereo not shown) [Compound 10]
COc1cc(-c2cn(C)c(=O)c3cnccc23)cc(Cl)c1C(=O)N1CCC(CC(=O)N2CCC(c3ccc(NC4CCC(=O)NC4=O)cc3)CC2)CC1 (stereo not shown) [Compound 232, 3-[4-[1-[2-[1-[2-chloro-6-methoxy-4-(2-methyl-1-oxo-2,7-naphthyridin-4-yl)benzoyl]-4-piperidyl]acetyl]-4-piperidyl]anilino]piperidine-2,6-dione]
COc1cc(-c2cn(C)c(=O)c3cnccc23)cc(Cl)c1CN1CCC(N2CCN(c3ccc(NC4CCC(=O)NC4=O)cc3F)CC2)C(F)(F)C1 (single isomer, unassigned) [Compound 179, 3-[4-[4-[1-[[2-chloro-6-methoxy-4-(2-methyl-1-oxo-2,7-naphthyridin-4-yl)phenyl]methyl]-3,3-difluoro-4-piperidyl]piperazin-1-yl]-3-fluoro-anilino]piperidine-2,6-dione]
COc1cc(-c2cn(C)c(=O)c3cnccc23)cc(Cl)c1CN1CCC(C2CCN(c3ccc(NC4CCC(=O)NC4=O)cc3C(F)(F)F)CC2)CC1 (stereo not shown) [Compound 83, 3-[4-[4-[1-[[2-chloro-6-methoxy-4-(2-methyl-1-oxo-2,7-naphthyridin-4-yl)phenyl]methyl]-4-piperidyl]-1-piperidyl]-3-(trifluoromethyl)anilino]piperidine-2,6-dione]
COc1cc(-c2cn(C)c(=O)c(C)c2C)cc(Cl)c1C(=O)N1CCC(C2CCN(c3ccc(NC4CCC(=O)NC4=O)cc3F)CC2)CC1 (stereo not shown) [Compound 208, 3-[4-[4-[1-[2-chloro-6-methoxy-4-(1,4,5-trimethyl-6-oxo-3-pyridyl)benzoyl]-4-piperidyl]-1-piperidyl]-3-fluoro-anilino]piperidine-2,6-dione]
COc1cc(-c2cn(C)c(=O)c3[nH]ncc23)cc(OC)c1CN1CCN(C(=O)CN2CCC(c3c(F)cc(NC4CCC(=O)NC4=O)cc3F)CC2)CC1 (stereo not shown) [Compound 17]
COc1cc(-c2cn(C)c(=O)c3ccccc23)cc(OC)c1CN1CCN(C(=O)CN2CCC(c3ccc(NC4CCC(=O)NC4=O)cc3)CC2)CC1 (stereo not shown) [Compound 28]
Cn1cc(-c2ccc(CN3CCN(C(=O)CN4CCC(c5ccc(NC6CCC(=O)NC6=O)cc5)CC4)CC3)c(OC(F)(F)F)c2)c2cn[nH]c2c1=O (stereo not shown) [Compound 20]
COc1cc(-c2cn(C)c(=O)c(C)c2C)cc(OC)c1CN1CCN(C(=O)CN2CCC(c3ccc(NC4CCC(=O)NC4=O)cc3)CC2)CC1 (stereo not shown) [Compound 30]
COc1cc(-c2cn(C)c(=O)c(C)c2C)cc(F)c1CN1CCC(N2CCN(c3ccc(NC4CCC(=O)NC4=O)cc3F)CC2)C(F)(F)C1 (stereo not shown) [Compound 191]
COc1cc(-c2cn(C)c(=O)c3[nH]ncc23)cc(Cl)c1CN1CCC(CCC2CCN(c3ccc(NC4CCC(=O)NC4=O)cc3F)CC2)CC1 (stereo not shown) [Compound 148]
COc1cc(-c2cn(C)c(=O)c(C)c2C)cc(OC)c1CN1C2CCC1CN(C(=O)CC1CCN(c3ccc(NC4CCC(=O)NC4=O)cc3C(F)(F)F)CC1)C2 (stereo not shown) [Compound 63, 3-[4-[4-[2-[8-[[2,6-dimethoxy-4-(1,4,5-trimethyl-6-oxo-3-pyridyl)phenyl]methyl]-3,8-diazabicyclo[3.2.1]octan-3-yl]-2-oxo-ethyl]-1-piperidyl]-3-(trifluoromethyl)anilino]piperidine-2,6-dione]
COc1cc(-c2cn(C)c(=O)c3[nH]ncc23)cc(F)c1CN1CCN(C(=O)OC2CCN(c3ccc(NC4CCC(=O)NC4=O)cc3)CC2)CC1 (stereo not shown) [Compound 146, [1-[4-[(2,6-dioxo-3-piperidyl)amino]phenyl]-4-piperidyl] 4-[[2-fluoro-6-methoxy-4-(6-methyl-7-oxo-1H-pyrazolo[3,4-c]pyridin-4-yl)phenyl]methyl]piperazine-1-carboxylate]
COc1cc(-c2cn(C)c(=O)c3[nH]ncc23)cc(OC)c1CC1CCN(CCN2CCC(c3ccc(NC4CCC(=O)NC4=O)cc3)CC2)CC1 (stereo not shown) [Compound 168, 3-[4-[1-[2-[4-[[2,6-dimethoxy-4-(6-methyl-7-oxo-1H-pyrazolo[3,4-c]pyridin-4-yl)phenyl]methyl]-1-piperidyl]ethyl]-4-piperidyl]anilino]piperidine-2,6-dione]
COc1cc(-c2cn(C)c(=O)c3[nH]ncc23)cc(Cl)c1CN1CCC(N2CCN(c3ccc(NC4CCC(=O)NC4=O)cc3F)CC2)C(F)(F)C1 (stereo not shown) [Compound 183]
COc1cc(-c2cc(C)c(=O)n(C)c2)cc(OC)c1CN1CCN(C(=O)CN2CCC(c3ccc(NC4CCC(=O)NC4=O)cc3)CC2)CC1 (stereo not shown) [Compound 31]
COc1cc(-c2cn(C)c(=O)c(C)c2C)cc(OC)c1CN1C2CCC1CN(C(=O)CC1CCN(c3ccc(NC4CCC(=O)NC4=O)cc3F)CC1)C2 (stereo not shown) [Compound 65]
COc1cc(-c2cn(C)c(=O)c(C)c2C)cc(OC)c1CN1CCC(C2CCN(c3ccc(NC4CCC(=O)NC4=O)cc3F)CC2)C(F)(F)C1 (stereo not shown) [Compound 198]

Same assay, conditions: Table 2; 293T.166 cells, 2.0 hours; class symbols; read-out: HiBiT-Degradation 293T.166 BRD9 2.0 hours (DC50)

DC50, < 100 nM:
COc1cc(-c2cn(C)c(=O)c(C)c2C)cc(Cl)c1CN1CCC(F)(CCC2CCN(c3ccc(NC4CCC(=O)NC4=O)cc3Cl)CC2)CC1 (stereo not shown) [Compound 263]
